Data published in patent US10196390B2, “TYK2 inhibitors and uses thereof” (Nimbus Lakshmi, Inc., priority 2014, dated 2019).

Tests used:
TYK2 = TYK2 (Homo sapiens (Human), UniProt P29597); assay: Tyk2 activity inhibition assay (radioactive kinase assay / Caliper assay); format: biochemical
Description: Peptide substrate, [[…]], (20 μM) is prepared in reaction buffer (20 mM Hepes pH 7.5, 10 mM MgCl2, 1 mM EGTA, 0.02% Brij35, 0.02 mg/mL BSA, […], 2 mM DTT, 1% DMSO. TYK2 (Invitrogen) kinase is added, followed by compounds in DMSO. 33PATP is added to initiate the reaction in ATP at 10 μM. Kinase reaction is incubated for 120 min at room temp and reactions are spotted onto P81 ion exchange paper (Whatman #3698-915), and then washed extensively in 0.75% phosphoric acid, prior to reading the radioactivity counts. For JAK2 (Invitrogen) kinase assay the peptide substrate poly[Glu:Tyr](4:1), 0.2 mg/ml is used, in the reaction carried out the same as for TYK2.
(§1) The caliper machine employs an off chip mobility shift assay to detect phosphorylated peptide substrates from kinase assays, using microfluidics technology. The assays are carried out at ATP concentration equivalent to the ATP Km, and at 1 mM ATP. Compounds are serially diluted in DMSO then further diluted in assay buffer (25 mM HEPES, pH 7.5, 0.01% Brij-35, 0.01% Triton, 0.5 mM EGTA). 5 ul of diluted compound was added into wells first, then 10 ul of enzyme mix was added into wells, followed by 10 uL of substrate mix (peptide and ATP in 10 mM MgCl2) to start reaction. Reaction was incubated at 28° C. for 25 min and then added 25 ul stop buffer (100 mM HEPES, 0.015% Brij-35, 50 mM EDTA), followed by reading with Caliper. JAK2 at 1 nM final concentration and TYK2 at 9.75 nM are from Carna, and substrates used are ATP at 20 and 16 uM, respectively. JAK2 assay uses peptide 22 and TYK2 uses peptide 30 (Caliper), each at 3 uM.

JAK2 = JAK2 (Homo sapiens (Human), UniProt O60674); assay: JAK2 activity inhibition assay (radioactive kinase assay / Caliper assay); format: biochemical; details: read-out: JAK2 Ki
Description: as §1, with “The assays are carried out at ATP concentration equivalent to the ATP Km, and at 1 mM ATP.” left out, “Caliper.” for “Caliper. JAK2 at 1 nM final concentration and TYK2 at 9.75 nM are from Carna, and substrates used are ATP at 20 and 16 uM, respectively. JAK2 assay uses peptide 22 and TYK2 uses peptide 30 (Caliper), each at 3 uM.”

Chain of TYK2 (P29597 whole entry): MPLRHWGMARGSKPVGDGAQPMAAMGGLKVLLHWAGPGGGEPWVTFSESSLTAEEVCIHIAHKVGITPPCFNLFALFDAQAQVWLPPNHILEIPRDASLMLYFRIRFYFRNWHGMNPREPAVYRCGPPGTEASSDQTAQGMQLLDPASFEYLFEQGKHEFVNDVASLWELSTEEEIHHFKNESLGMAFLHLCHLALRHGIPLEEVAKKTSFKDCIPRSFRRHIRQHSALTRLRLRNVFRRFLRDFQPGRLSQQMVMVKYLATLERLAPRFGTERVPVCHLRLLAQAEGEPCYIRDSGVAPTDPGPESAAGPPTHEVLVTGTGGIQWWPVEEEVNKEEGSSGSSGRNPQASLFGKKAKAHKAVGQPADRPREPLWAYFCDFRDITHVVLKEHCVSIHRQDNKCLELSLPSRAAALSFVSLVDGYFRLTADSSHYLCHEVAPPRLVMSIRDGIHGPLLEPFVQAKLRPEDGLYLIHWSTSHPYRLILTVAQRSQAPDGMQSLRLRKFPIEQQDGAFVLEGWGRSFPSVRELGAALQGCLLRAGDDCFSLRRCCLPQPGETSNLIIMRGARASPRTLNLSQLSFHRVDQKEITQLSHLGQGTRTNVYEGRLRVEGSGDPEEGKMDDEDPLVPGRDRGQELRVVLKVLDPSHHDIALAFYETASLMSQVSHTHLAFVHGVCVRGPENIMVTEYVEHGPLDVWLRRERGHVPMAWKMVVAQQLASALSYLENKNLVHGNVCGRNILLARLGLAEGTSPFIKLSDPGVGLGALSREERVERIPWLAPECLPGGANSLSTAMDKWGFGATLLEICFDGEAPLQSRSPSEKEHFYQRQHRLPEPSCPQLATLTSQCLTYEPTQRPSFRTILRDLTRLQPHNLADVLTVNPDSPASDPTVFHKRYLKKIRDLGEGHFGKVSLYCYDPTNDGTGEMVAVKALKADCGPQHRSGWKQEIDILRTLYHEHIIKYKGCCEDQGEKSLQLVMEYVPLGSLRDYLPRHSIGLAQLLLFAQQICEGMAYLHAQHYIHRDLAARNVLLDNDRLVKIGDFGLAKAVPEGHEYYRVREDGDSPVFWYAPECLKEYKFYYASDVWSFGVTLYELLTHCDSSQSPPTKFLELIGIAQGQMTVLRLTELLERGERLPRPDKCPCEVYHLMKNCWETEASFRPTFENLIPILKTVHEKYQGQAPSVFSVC
Chain of JAK2 (O60674 whole entry): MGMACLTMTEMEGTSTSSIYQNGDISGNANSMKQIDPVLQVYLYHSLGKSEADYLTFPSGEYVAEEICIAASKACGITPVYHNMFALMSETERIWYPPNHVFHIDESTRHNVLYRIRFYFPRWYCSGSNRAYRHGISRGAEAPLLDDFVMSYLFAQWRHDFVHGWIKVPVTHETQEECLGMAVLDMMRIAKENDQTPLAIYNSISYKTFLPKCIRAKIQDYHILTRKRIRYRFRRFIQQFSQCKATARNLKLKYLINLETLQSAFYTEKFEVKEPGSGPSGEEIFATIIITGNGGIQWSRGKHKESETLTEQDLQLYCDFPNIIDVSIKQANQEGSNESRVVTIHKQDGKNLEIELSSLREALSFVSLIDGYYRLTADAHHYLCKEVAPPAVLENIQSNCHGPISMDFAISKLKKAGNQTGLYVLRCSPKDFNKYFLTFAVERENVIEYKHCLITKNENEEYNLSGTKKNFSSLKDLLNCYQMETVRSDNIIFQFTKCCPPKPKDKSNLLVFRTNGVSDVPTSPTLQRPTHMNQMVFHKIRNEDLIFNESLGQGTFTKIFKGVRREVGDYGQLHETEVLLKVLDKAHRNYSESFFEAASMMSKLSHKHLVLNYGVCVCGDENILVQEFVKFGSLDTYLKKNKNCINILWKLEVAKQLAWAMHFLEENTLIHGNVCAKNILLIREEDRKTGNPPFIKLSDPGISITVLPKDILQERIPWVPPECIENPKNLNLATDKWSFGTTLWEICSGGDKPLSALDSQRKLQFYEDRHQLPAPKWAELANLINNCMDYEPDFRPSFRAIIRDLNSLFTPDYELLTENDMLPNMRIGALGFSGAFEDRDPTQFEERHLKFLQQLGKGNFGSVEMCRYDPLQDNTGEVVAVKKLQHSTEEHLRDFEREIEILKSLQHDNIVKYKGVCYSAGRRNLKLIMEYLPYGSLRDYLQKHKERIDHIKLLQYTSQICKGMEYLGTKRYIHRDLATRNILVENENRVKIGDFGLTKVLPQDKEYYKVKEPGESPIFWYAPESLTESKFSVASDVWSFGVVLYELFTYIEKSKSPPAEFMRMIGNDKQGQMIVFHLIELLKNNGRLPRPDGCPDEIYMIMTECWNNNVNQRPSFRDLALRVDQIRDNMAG

Structure (SMILES) | Ki (TYK2) [nM] | Ki (JAK2) [nM]
N#Cc1cc(Cl)c(-c2nc3c(c(Nc4ccc(CC(=O)O)cc4)n2)C(=O)NC3)c(Cl)c1 [Compound I-9, 2-(4-((2-(2,6-dichloro-4-cyanophenyl)-5-oxo-6,7-dihydro-5H-pyrrolo[3,4-d]pyrimidin-4-yl)amino)phenyl)acetic Acid] | < 10 | 100 to 1000
O=C(Cc1ccc(Nc2nc(-c3c(F)cccc3F)nc3c2C(=O)NC3)cc1)NC1CC2(CNC2)C1 [Compound I-14, 2-(4-((2-(2,6-difluorophenyl)-5-oxo-6,7-dihydro-5H-pyrrolo[3,4-d]pyrimidin-4-yl)amino)phenyl)-N-(2-azaspiro[3.3]heptan-6-yl)acetamide] | < 10 | 100 to 1000
O=C(O)Cc1ccc(Nc2nc(-c3c(F)cccc3F)nc3c2C(=O)NC3)cn1 [Compound I-17] | 100 to 1000 | > 1000
COC(=O)Cc1ccc(Nc2nc(-c3c(F)cccc3F)nc3c2C(=O)NC3)cn1 [Compound I-18, methyl 2-(5-((2-(2,6-difluorophenyl)-5-oxo-6,7-dihydro-5H-pyrrolo[3,4-d]pyrimidin-4-yl)amino)pyridin-2-yl)acetate] | 100 to 1000 | > 1000
O=C(Cc1ccc(Nc2nc(-c3c(F)cccc3F)nc3c2C(=O)NC3)cn1)NC1CCNCC1 [Compound I-19, 2-(5-((2-(2,6-difluorophenyl)-5-oxo-6,7-dihydro-5H-pyrrolo[3,4-d]pyrimidin-4-yl)amino)pyridin-2-yl)-N-(piperidin-4-yl)acetamide] | 100 to 1000 | > 1000
CCNC(=O)Cc1ccc(Nc2nc(-c3c(F)cccc3F)nc3c2C(=O)NC3)cn1 [Compound I-23, 2-(5-((2-(2,6-difluorophenyl)-5-oxo-6,7-dihydro-5H-pyrrolo[3,4-d]pyrimidin-4-yl)amino)pyridin-2-yl)-N-ethylacetamide] | 10 to 100 | > 1000
O=C1NCc2nc(-c3c(F)cccc3F)nc(Nc3cnn(CC(=O)N4CCC[C@H]4CO)c3)c21 [Compound I-68, (S)-2-(2,6-difluorophenyl)-4-((1-(2-(2-(hydroxymethyl)pyrrolidin-1-yl)-2-oxoethyl)-1H-pyrazol-4-yl)amino)-6,7-dihydro-5H-pyrrolo[3,4-d]pyrimidin-5-one] | 10 to 100 | > 1000
CCNC(=O)Cn1cc(Nc2nc(-c3c(F)cccc3F)nc3c2C(=O)NC3)cn1 [Compound I-69, 2-(4-((2-(2,6-difluorophenyl)-5-oxo-6,7-dihydro-5H-pyrrolo[3,4-d]pyrimidin-4-yl)amino)-1H-pyrazol-1-yl)-N-ethylacetamide] | 10 to 100 | > 1000
C[C@H](CO)NC(=O)Cn1cc(Nc2nc(-c3c(F)cccc3F)nc3c2C(=O)NC3)cn1 [Compound I-70, (R)-2-(4-((2-(2,6-difluorophenyl)-5-oxo-6,7-dihydro-5H-pyrrolo[3,4-d]pyrimidin-4-yl)amino)-1H-pyrazol-1-yl)-N-(1-hydroxypropan-2-yl)acetamide] | 10 to 100 | > 1000
O=C(O)Cn1cc(Nc2nc(-c3c(F)cccc3F)nc3c2C(=O)NC3)cn1 [Compound I-71, 2-(4-((2-(2,6-difluorophenyl)-5-oxo-6,7-dihydro-5H-pyrrolo[3,4-d]pyrimidin-4-yl)amino)-1H-pyrazol-1-yl)acetic Acid] | 10 to 100 | > 1000
O=C(Cc1ccc(Nc2nc(-c3c(F)cccc3F)nc3c2C(=O)NC3)cc1)N[C@@H]1CCNC1 [Compound I-73, (R)-2-(4-((2-(2,6-difluorophenyl)-5-oxo-6,7-dihydro-5H-pyrrolo[3,4-d]pyrimidin-4-yl)amino)phenyl)-N-(pyrrolidin-3-yl)acetamide] | < 10 | 100 to 1000
C[C@@H](CO)NC(=O)Cc1ccc(Nc2nc(-c3c(F)cccc3F)nc3c2C(=O)NC3)cc1 [Compound I-74, (S)-2-(4-((2-(2,6-difluorophenyl)-5-oxo-6,7-dihydro-5H-pyrrolo[3,4-d]pyrimidin-4-yl)amino)phenyl)-N-(1hydroxypropan-2-yl)acetamide] | < 10 | 100 to 1000
C[C@H](O)CNC(=O)Cc1ccc(Nc2nc(-c3c(F)cccc3F)nc3c2C(=O)NC3)cc1 [Compound I-75, (S)-2-(4-((2-(2,6-difluorophenyl)-5-oxo-6,7-dihydro-5H-pyrrolo[3,4-d]pyrimidin-4-yl)amino)phenyl)-N-(2-hydroxy-propyl)acetamide] | < 10 | 100 to 1000
CC(C)(O)CNC(=O)Cc1ccc(Nc2nc(-c3c(F)cccc3F)nc3c2C(=O)NC3)cc1 [Compound I-76, 2-(4-((2-(2,6-difluorophenyl)-5-oxo-6,7-dihydro-5H-pyrrolo[3,4-d]pyrimidin-4-yl)amino)phenyl)-N-(2-hydroxy-2-methylpropyl)acetamide] | < 10 | 10 to 100
C[C@@H](O)CNC(=O)Cc1ccc(Nc2nc(-c3c(F)cccc3F)nc3c2C(=O)NC3)cc1 [Compound I-77, (R)-2-(4-((2-(2,6-difluorophenyl)-5-oxo-6,7-dihydro-5H-pyrrolo[3,4-d]pyrimidin-4-yl)amino)phenyl)-N-(2-hydroxy-propyl)acetamide] | < 10 | 100 to 1000

Other lines, results leading:

Ki (TYK2) [nM] | Ki (JAK2) [nM] | Structure (SMILES)
< 10 | 100 to 1000 | O=C(O)Cc1ccc(Nc2nc(-c3c(F)cccc3Cl)nc3c2C(=O)NC3)cc1 [Compound I-10, 2-(4-((2-(2-chloro-6-fluorophenyl)-5-oxo-6,7-dihydro-5H-pyrrolo[3,4-d]pyrimidin-4-yl)amino)phenyl)acetic Acid]
< 10 | 100 to 1000 | O=C(Cc1ccc(Nc2nc(-c3c(F)cccc3F)nc3c2C(=O)NC3)cc1)NC1CCNCC1 [Compound I-11, 2-(4-((2-(2,6-difluorophenyl)-5-oxo-6,7-dihydro-5H-pyrrolo[3,4-d]pyrimidin-4-yl)amino)phenyl)-N-(piperidin-4-yl)acetamide]
< 10 | 100 to 1000 | O=C(Cc1ccc(Nc2nc(-c3c(F)cccc3F)nc3c2C(=O)NC3)cc1)NCC1CCNCC1 [Compound I-13, 2-(4-((2-(2,6-difluorophenyl)-5-oxo-6,7-dihydro-5H-pyrrolo[3,4-d]pyrimidin-4-yl)amino)phenyl)-N-(piperidin-4-ylmethyl)acetamide]
< 10 | 100 to 1000 | O=C1NCc2nc(-c3c(F)cccc3F)nc(Nc3ccc(CC(=O)N4CCC[C@@H]4CO)cc3)c21 [Compound I-15, (R)-2-(2,6-difluorophenyl)-4-((4-(2-(2-(hydroxymethyl)pyrrolidin-1-yl)-2-oxoethyl)phenyl)amino)-6,7-dihydro-5H-pyrrolo[3,4-d]pyrimidin-5-one]
< 10 | 10 to 100 | CN(C(=O)Cc1ccc(Nc2nc(-c3c(F)cccc3F)nc3c2C(=O)NC3)cc1)C1CCNCC1 [Compound I-22, 2-(4-((2-(2,6-difluorophenyl)-5-oxo-6,7-dihydro-5H-pyrrolo[3,4-d]pyrimidin-4-yl)amino)phenyl)-N-methyl-N-(piperidin-4-yl)acetamide]
< 10 | 100 to 1000 | O=C(Cc1ccc(Nc2nc(-c3c(F)cccc3F)nc3c2C(=O)NC3)cc1)N[C@@H]1CCCNC1 [Compound I-61, (R)-2-(4-((2-(2,6-difluorophenyl)-5-oxo-6,7-dihydro-5H-pyrrolo[3,4-d]pyrimidin-4-yl)amino)phenyl)-N-(piperidin-3-yl)acetamide]
< 10 | 100 to 1000 | O=C1NCc2nc(-c3c(F)cccc3F)nc(Nc3ccc(CC(=O)N4CC5(COC5)C4)cc3)c21 [Compound I-62, 2-(2,6-difluorophenyl)-4-((4-(2-oxo-2-(2-oxa-6-azaspiro[3.3]heptan-6-yl)ethyl)phenyl)amino)-6,7-dihydro-5H-pyrrolo[3,4-d]pyrimidin-5-one]
< 10 | 100 to 1000 | C[C@H](CO)NC(=O)Cc1ccc(Nc2nc(-c3c(F)cccc3F)nc3c2C(=O)NC3)cc1 [Compound I-63, (R)-2-(4-((2-(2,6-difluorophenyl)-5-oxo-6,7-dihydro-5H-pyrrolo[3,4-d]pyrimidin-4-yl)amino)phenyl)-N-(1-hydroxypropan-2-yl)acetamide]
< 10 | 100 to 1000 | O=C(Cc1ccc(Nc2nc(-c3c(F)cccc3F)nc3c2C(=O)NC3)cc1)NCC1CNC1 [Compound I-72, N-(azetidin-3-ylmethyl)-2-(4-((2-(2,6-difluoro-phenyl)-5-oxo-6,7-dihydro-5H-pyrrolo[3,4-d]pyrimidin-4-yl)amino)-phenyl)acetamide]
